Key:
[1] = tested on: plants from treated seeds; test: Stress protection: seed priming by vacuum infiltration, plants left un-watered (drought); type: in vivo
Procedure: Seeds were treated with a NOSH composition comprising 30% methanol and the priming application method was vacuum infiltration (90 sec). […] Plants were growth on optimum condition until 37 days and then were left un-watered for 7 days. Observation on plant phenotype was performed and interesting differences on the plant appearance were recorded. […] This supported the conclusion that NOSH compounds enhance plant tolerance, (probably, however, without being bound to this hypothesis, by avoiding the accumulation of stress-related pigments such as anthocyanin).

[2] = tested on: Arabidopsis thaliana seeds (ecotype Col-0); test: Leaf 3 area and epidermal cell analysis of plants from treated seeds; type: in vivo; details: 50 μM at seed level, carrier 0.1% DMSO
Procedure: For the leaf area analysis, 3rd true leaves were harvested from all the replicates and then the leaves were cleared in 100% ethanol, mounted in lactic acid on microscope slides, and photographed. Leaf areas were measured with the ImageJ software (http://rsb.info.nih.gov//ij/). Abaxial epidermal cells were drawn with a DMLB microscope (Leica) fitted with a drawing tube and a differential interference contrast objective. Drawings were scanned and analyzed using automated image analysis algorithms (Andriankaja et al. 2012). Subsequently, drawings were used to measure average cell size, from which the total pavement cell number was calculated. The stomatal index was defined as the percentage of stomata in relation to the number of epidermal cells. Statistical analysis was performed with SAS (Version 9.4 of the SAS System for windows 7 64 bit by using the mixed model analysis. Copyright C 2002-2012 SAS Institute Inc. Cary, NC, USA (www.sas.com). Finally, the ratio of leaf 3 area, pavement cell area, pavement cell number and stomata index measured on plants treated at seed level with 50 μM NOSH compared with plants received from carrier-treated seeds (seeds treated with 0.1% DMSO) were determined, the results of which is provided in FIG. 4 (values are averages of three biological repeats, with each repeat consisting of 6-8 plants).

[3] = Dissolution of the compounds for the stock solution; type: physicochemical; details: stock solution of 100 mM; visible observation
Procedure: In order to select the optimum concentration of NOSH and NOSH-ASA, a concentration gradient was performed. To achieve the gradient, a stock solution of 100 mM was prepared. […] Therefore, it was decided to prepare a stock solution using 100% DMSO and then dilute the composition to 0.1% DMSO.

[4] = tested on: Arabidopsis thaliana seeds (ecotype Col-0); test: Seed treatment at pre-germination stage, plant growth (rosette fresh weight, projected rosette area); type: in vivo; details: for concentration resulting in highest increase in fresh weight: screening at concentration gradient 0-100 μM, rosettes 22 DAS, seeds soaked 12 hrs
Procedure: Stock solutions of NOSH or NOSH-ASA were each prepared by initial dissolution in 100% DMSO. From each stock solution, treatment compositions at a 0-100 μM concentration gradient (diluted in 0.1% v/v DMSO) were prepared. Arabidopsis thaliana seeds (ecotype Col-0) were treated at their pre-germination stage with different concentrations of NOSH or NOSH-aspirin solutions (0-100 μM concentration gradient) by soaking the seeds in Petri dishes at room temperature and in the dark. After 12 hrs, the seeds were air dried for 2-3 hrs. Four seeds per pot were sown in soil medium and stratified at 4° C. for 4 days to achieve germination uniformity. Then the pots were transferred to the growth room and allowed to grow under controlled conditions of 22° C., and a 16-hr day (100-120 μmol m^−2 s^−1)/8-hr night regime for 22 days (d). Nine Days After Stratification (DAS), one seedling, which had the projected rosette area closest to the median area of the treatment, was selected from the four seedlings sown per pot. Four independent experiments were carried out using a minimum of 6-8 independent plants as replicates per experiment. Projected Rosette Area (PRA) was determined by taking pictures of the rosettes 22 days after stratification (DAS). The pictures were subsequently analyzed using ImageJ software (http://rsb.info.nih.gov/ij/) to measure the size of each plant. Represented rosette sizes were calculated by taking the average of the individual plant per repeat and then per treatment. The same rosettes were used also for fresh weight measurements. In this connection it is noted that in preliminary experiments no substantial differences between the ratio of fresh weight and the ratio of dry weight under optimum soil water content was observed. Statistical analysis was performed with SAS (Version 9.4 of the SAS System for windows 7 64 bit by using the mixed model analysis. Copyright C 2002-2012 SAS Institute Inc. Cary, NC, USA (www.sas.com). Seeds were treated by seed soaking for 12 hr with NOSH at 50 μM. Four seeds were then sown in soil medium within a pot and allowed to grow for 22 days under the conditions described above.

[5] = tested on: baby spinach cultivars (Sunangel RZ, Scarne F1PV-1656); test: Baby spinach seed priming, growth under heat stress; type: in vivo; details: day 37-40° C., 50 μM seed priming 12 hours
Procedure: NOSH-A was initially prepared in a stock solution of 50 mM using DMSO. The working solution was made by diluting the stock in water to reach a final concentration of 50 μM in 0.1% DMSO. Seed priming was performed by soaking the seeds of two baby spinach cultivars (Sunangel RZ, Scarne F1PV-1656) in NOSH-A solution for 12 hours at 25° C. Then the seeds were placed in gauze under the laminar flow for air-drying, till reaching their initial weight. Seeds were sown in the soil in a commercial greenhouse (FIG. 6a), and let to grow until day 30. Average day temperature ranged between 37-40° C., while night temperature ranged between 21-23° C. Growing plants were watered three times per week. All agronomic analyses were carried out using a minimum of nine independent plants per treatment, while survival percentage was calculated from a total of 300 plants per treatment.

[6] = tested on: tomato seeds (4 different varieties); test: Tomato seed priming under salt stress conditions; type: in vivo; details: for fruit yield per plant: 50 μM in 0.1% DMSO, seeds soaked 12 hours, vs untreated, hydroprimed, solvent-treated seeds
Procedure: A experiment has been carried out, whereby the effect of NOSH-A pre-treatment of tomato seeds was examined under salt stress conditions. The treatments were as follows: • Untreated tomato seeds (4 different varieties—CV1-4) • Hydroprimed seeds (soaked in dH2O) • NOSH-A control treated seeds (soaked in 0.1% DMSO) • NOSH-A primed seeds NOSH-A was initially prepared in a stock solution of 50 mM using DMSO. The working solution was made by diluting the stock in water to reach a final concentration of 50 μM in 0.1% DMSO. Seed priming was performed by soaking the seeds in NOSH-A solution for 12 hours at 25° C. Then the seeds were placed in gauze under the laminar flow for air-drying, till reaching their initial weight. The seeds were sown in plastic seedling trays (1 seed per pot) filled with sterile soil, covered with a transparent film, and let to germinate in a growth chamber room under certain conditions of 24/20° C. day/night temperatures, 60-70% RH, with a photosynthetic photon flux density of 120 μmol m^2 s^−1 and a 16/8-h photoperiod. At day 7 after sowing, seedlings were transplanted into square plastic pots filled with sterilized pot soil, transferred into a glasshouse, and let to grow until day 24. Growing plants were watered three times per week. Plants were then watered with saline solution (7.8-12.0 dS/m), while controls were watered with dH2O, until fruiting. A total of four harvests were carried out, with yield data being the total of the four harvesting events. All analyses were carried out using six independent plants per treatment.

[7] = control and high salinity conditions, 50 μM seed priming

**Q.** Which results are given for `O=C(CCCO[N+](=O)[O-])Oc1ccc(-c2cc(=S)ss2)cc1` [NOSH]?
**A.** seed germination after soaking ([1]; NOSH composition comprising 30% methanol, soaking 4 h, 12 h and 24 h, attributed to high percentage of methanol): no seed germination; plant phenotype / tolerance after drought ([1]; composition with 30% methanol, vacuum infiltration 90 sec, un-watered 7 days after 37 days, vs carrier-treated drought plants): greener and with less anthocyanin on the leaves; leaf 3 area, ratio to carrier-treated seeds [2]: statistically significant (p values indicated in the Figures) increase; pavement cell area, ratio to carrier-treated seeds [2]: statistically significant (p values indicated in the Figures) increase; pavement cell number, ratio to carrier-treated seeds [2]: statistically significant (p values indicated in the Figures) increase; stomata index, ratio to carrier-treated seeds [2]: statistically significant (p values indicated in the Figures) increase; dissolution directly in 0.1% DMSO [3]: did not completely dissolve; growth of the leaves ([4]; 50 μM, seeds soaked 12 hr, 22 DAS, vs no NOSH treatment): increased growth of the leaves; fresh weight of rosettes, ratio to carrier-treated seeds ([4]; 50 μM, seeds soaked 12 hr, 22 days, p value 0.0001): statistically significant (p values indicated in the Figures) increase; concentration resulting in highest increase in fresh weight [4]: 50 µM; projected rosette area (PRA) ratio, treated seeds vs carrier-treated seeds ([4]; seeds exposed before germination, carrier 0.1% DMSO): > 1.5 fold; promoting growth following treatment at the seed level ([4]; treatment of seeds before germination): more effective in promoting growth as compared to NOSH-NSAID

**Q.** Which average leaf area [5] does the source give for `O=C(CCCO[N+](=O)[O-])Oc1ccccc1C(=O)Oc1ccc(-c2cc(=S)ss2)cc1` [NOSH-ASA] here?
**A.** Its average leaf area is “significant improvements”.

**Q.** What about the “total plant leaf area” value [5] of the same molecule?
**A.** Its value is “significant improvements”.

**Q.** What about the “survival percentage of plants” value ([5]; vs untreated, hydroprimed, solvent-treated seeds) of the same molecule?
**A.** Its value is “clear improvement”.

**Q.** And the fruit dry weight [6, 7]?
**A.** Its fruit dry weight is “significant improvements”.

**Q.** And the fruit fresh weight [6, 7]?
**A.** The fruit fresh weight was “significant improvements”.

**Q.** And the “fruit yield per plant” value ([6]; control conditions)?
**A.** The value was “significant improvement”.

**Q.** And the “fruit yield per plant” value ([6]; high salinity conditions (7.8-12.0 dS/m))?
**A.** The value was “significant improvement”.

**Q.** What about the “dissolution directly in 0.1% DMSO” value [3] of the same molecule?
**A.** The value was “did not completely dissolve”.

**Q.** What about the “concentration resulting in highest increase in fresh weight” value [4] of the same molecule?
**A.** The value was 10 µM.

From US20260231848A1, “A METHOD OF TREATING SEEDS AND SEEDS PRODUCED THEREBY” (RESEARCH FOUNDATION OF THE CITY UNIVERSITY OF NEW YORK, priority 2023, published 2026)
